The assay has as its target human cathepsin V (Homo sapiens, UniProt O60911). The assay is described as follows: cathepsin V inhibition assay, fluorogenic substrate Cbz-Phe-Arg-AMC. The assay is classed as biochemical. As to conditions: Table 2; human recombinant enzyme, 2 μM substrate; read-out: hCat V Ki. Here is the method: All assays for cathepsin K were carried out with human and rat recombinant enzyme. Assays for cathepsins S & V were also carried out with human recombinant enzyme. Assays for human cathepsins B, H, and L were carried out with enzyme, purchased from Athens Research and Technology, Inc., prepared from human liver tissue. Standard assay conditions for the determination of kinetic constants used a fluorogenic peptide substrate, typically (5S,8S)-13-amino-5-benzyl-13-imino-3-methylene-N-(4-methyl-2-oxo-2H-chromen-7-yl)-6-oxo-1-phenyl-2-oxa-4,7,12-triazatridecane-8-carboxamide (Cbz-Phe-Arg-AMC), and were determined in 100 mM sodium acetate at pH 5.5 containing 10 mM dithiothreitol and 120 mM sodium chloride. A stock substrate solution of Cbz-Phe-Arg-AMC was prepared at a concentration of 50 mM in dimethyl sulfoxide. This substrate was diluted into the assay for a final substrate concentration of 10 μM in the rat cathepsin K, human cathepsin K, and human cathepsin B assays; a final substrate concentration of 5 μM in the human cathepsin L assay; and a final substrate concentration of 2 μM in the human cathepsin V assay.
All assays contained 10% dimethyl sulfoxide. […] All assays were conducted at 30° C. Product fluorescence (excitation at 360 nm; emission at 440 nm, (except cathepsin H which used excitation at 340 nm; emission at 420 nm)) was monitored with a PerSeptive Biosystems Cytofluor II fluorescence plate reader. Product progress curves were generated over 2.3 h monitoring the formation of 7-amino-4-methylcoumarin product (or β-naphthalamide for cathepsin H).
Potential inhibitors were evaluated using the progress curve method. […] For those compounds whose progress curves were linear, the enzymatic activity (RATE) was plotted against the concentration of test compound, including inhibitor concentration of zero ([I]=0), and the IC50 determined from a fit of equation 1 to the data, RATE=Vmax/(1+([I]/IC50)) (1) where Vmax is the best fit estimate of the maximal enzymatic activity. Ki values were calculated from IC50 values using equation 2 assuming a competitive model.
human cathepsin V, sequence (O60911 114-334): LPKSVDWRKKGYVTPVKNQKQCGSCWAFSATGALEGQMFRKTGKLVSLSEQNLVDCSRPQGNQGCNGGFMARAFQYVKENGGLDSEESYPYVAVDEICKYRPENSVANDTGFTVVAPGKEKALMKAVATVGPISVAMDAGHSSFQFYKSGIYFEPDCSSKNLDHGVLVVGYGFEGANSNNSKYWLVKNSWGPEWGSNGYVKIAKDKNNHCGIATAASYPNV
One may read the Ki as a measure of affinity in units of concentration, obtained from inhibition or displacement. Turning to `CCCC[C@H](NC(=O)OC1(Cc2ccccc2)CCCC1)C(=O)C(=O)N[C@@H](C)C(=O)OCc1ccccc1` [Example 3, Benzyl (2S)-2-{[(3S)-3-({[(1-benzylcyclopentyl)oxy]carbonyl}amino)-2-oxoheptanoyl]amino}propanoate], the Ki was more than 1000 nM.
To `CCCC[C@H](NC(=O)OCC1(Cc2ccc(F)cc2)CCC1)C(=O)C(=O)Nc1n[nH]c2cc(Cl)ccc12` [Example 15, [1-(4-fluorobenzyl)cyclobutyl]methyl(1S)-1-[[(6-chloro-1H-indazol-3-yl)amino](oxo)acetyl]pentylcarbamate] belongs 1 to 10 nM.
As for `CCCC[C@H](NC(=O)OC1(c2nc3ccccc3s2)CCCC1)C(=O)C(=O)Nc1ccn[nH]1` [Example 17, 1-(1,3-Benzothiazol-2-yl)cyclopentyl(1S)-1-[oxo(1H-pyrazol-3-ylamino)acetyl]pentylcarbamate], the Ki was 10 to 100 nM.
